This note sets out measurements from ChEMBL document CHEMBL1149252, “Synthesis and structure-activity relationships of 4-alkynyloxy phenyl sulfanyl, sulfinyl, and sulfonyl alkyl hydroxamates as tumor necrosis factor-alpha converting enzyme and matrix metalloproteinase inhibitors” (J Med Chem, 2004).

Experiment [1] concerns the target Disintegrin and metalloproteinase domain-containing protein 17 (Homo sapiens, UniProt P78536).
Experiment [2] deals with Matrix metalloproteinase-9 (Homo sapiens, UniProt P14780).
For a further experiment, the target named is Collagenase 3 (Homo sapiens, UniProt P45452).
The next experiment addresses Interstitial collagenase (Homo sapiens, UniProt P03956).
Another experiment relates to THP-1. Kind of experiment: Inhibition of LPS-stimulated TNFalpha production in human THP1 cells at 3 uM by ELISA. Format: functional. In general terms: An ELISA detects its analyte on a solid surface through an enzyme-linked reagent.

In general, IC50 refers to the concentration at which inhibition is half-maximal. High values mean a need for much substance, low ones inhibition by little substance. Broadly, the inhibition is the share of the control response that was lost under treatment. Low readings indicate little suppression, high ones strong suppression.

Bounds are passed on as bounds.

Chain of Interstitial collagenase (P03956 whole entry): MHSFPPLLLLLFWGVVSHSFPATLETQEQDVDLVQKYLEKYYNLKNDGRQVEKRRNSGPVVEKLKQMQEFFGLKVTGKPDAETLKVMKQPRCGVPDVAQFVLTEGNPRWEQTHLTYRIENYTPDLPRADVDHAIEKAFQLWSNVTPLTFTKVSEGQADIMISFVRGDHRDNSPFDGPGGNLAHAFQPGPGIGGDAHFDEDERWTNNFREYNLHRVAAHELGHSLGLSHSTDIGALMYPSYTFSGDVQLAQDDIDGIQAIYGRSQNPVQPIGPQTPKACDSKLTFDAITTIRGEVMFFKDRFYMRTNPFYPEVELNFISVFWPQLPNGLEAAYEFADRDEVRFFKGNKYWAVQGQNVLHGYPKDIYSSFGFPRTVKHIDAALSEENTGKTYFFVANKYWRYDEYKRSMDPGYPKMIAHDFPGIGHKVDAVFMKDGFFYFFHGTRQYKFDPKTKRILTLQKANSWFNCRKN
Chain of Matrix metalloproteinase-9 (P14780 whole entry): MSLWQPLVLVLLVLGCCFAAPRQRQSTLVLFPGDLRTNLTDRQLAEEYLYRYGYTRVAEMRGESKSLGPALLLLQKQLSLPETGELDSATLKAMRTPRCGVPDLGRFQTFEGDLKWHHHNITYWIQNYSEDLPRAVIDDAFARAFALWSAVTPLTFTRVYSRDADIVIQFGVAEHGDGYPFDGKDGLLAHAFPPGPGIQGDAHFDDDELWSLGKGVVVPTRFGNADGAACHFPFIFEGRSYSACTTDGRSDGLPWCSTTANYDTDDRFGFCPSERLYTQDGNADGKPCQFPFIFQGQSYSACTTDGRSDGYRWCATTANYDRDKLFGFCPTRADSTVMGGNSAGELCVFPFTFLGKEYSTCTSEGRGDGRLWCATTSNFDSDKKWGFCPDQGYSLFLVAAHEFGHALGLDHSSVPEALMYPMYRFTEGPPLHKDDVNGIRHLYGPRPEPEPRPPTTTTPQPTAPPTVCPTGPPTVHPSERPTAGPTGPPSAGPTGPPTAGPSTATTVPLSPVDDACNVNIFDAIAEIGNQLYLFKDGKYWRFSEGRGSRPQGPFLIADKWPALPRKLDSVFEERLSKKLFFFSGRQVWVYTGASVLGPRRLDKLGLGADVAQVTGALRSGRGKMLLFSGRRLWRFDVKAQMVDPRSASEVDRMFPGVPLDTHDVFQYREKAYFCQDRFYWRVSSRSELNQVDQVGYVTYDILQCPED
Chain of Disintegrin and metalloproteinase domain-containing protein 17 (P78536 whole entry, the tested form may be a part): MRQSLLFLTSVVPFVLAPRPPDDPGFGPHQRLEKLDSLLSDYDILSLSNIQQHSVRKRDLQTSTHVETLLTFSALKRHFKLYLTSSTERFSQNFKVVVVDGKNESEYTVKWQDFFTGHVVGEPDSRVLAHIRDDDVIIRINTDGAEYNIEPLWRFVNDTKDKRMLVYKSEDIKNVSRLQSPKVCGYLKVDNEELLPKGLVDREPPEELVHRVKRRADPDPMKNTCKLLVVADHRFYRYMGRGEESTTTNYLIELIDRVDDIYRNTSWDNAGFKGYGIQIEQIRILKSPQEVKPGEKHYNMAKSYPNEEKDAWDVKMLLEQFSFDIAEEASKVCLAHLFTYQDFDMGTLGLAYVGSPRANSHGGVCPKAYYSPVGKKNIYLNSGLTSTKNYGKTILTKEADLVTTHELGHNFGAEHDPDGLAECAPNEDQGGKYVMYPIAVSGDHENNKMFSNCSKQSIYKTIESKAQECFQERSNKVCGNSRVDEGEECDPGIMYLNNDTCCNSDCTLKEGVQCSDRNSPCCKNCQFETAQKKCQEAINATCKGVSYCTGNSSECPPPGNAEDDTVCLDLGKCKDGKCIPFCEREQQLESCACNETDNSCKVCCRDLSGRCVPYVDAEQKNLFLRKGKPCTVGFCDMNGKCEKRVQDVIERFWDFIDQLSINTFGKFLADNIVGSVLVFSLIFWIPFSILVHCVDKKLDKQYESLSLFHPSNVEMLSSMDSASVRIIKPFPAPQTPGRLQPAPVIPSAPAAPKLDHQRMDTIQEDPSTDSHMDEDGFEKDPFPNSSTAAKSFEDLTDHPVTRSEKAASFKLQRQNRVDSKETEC

Consider `CC#CCOc1ccc(S(=O)(=O)C(C(=O)NO)C2CCN(C(C)=O)CC2)cc1` (configuration not stated), for which the IC50 is 0.119 µM in experiment [1], more than 10 µM in experiment [2], more than 10 µM at Collagenase 3 and more than 10 µM at Interstitial collagenase. In the experiment with THP-1, the inhibition at 3 µM turned out to be 31%.

With `CC#CCOc1ccc(S(=O)(=O)C(C(=O)NO)c2ccc(OC)cc2)cc1` (configuration not stated), the IC50 is 0.201 µM in experiment [1], more than 10 µM in experiment [2], 3.69 µM against Collagenase 3 and more than 10 µM on Interstitial collagenase.

Turning to `CC#CCOc1ccc(SC(C(=O)NO)C2CCCCC2)cc1` (configuration not stated), the results for the IC50 (in experiment [2]; against Collagenase 3; against Interstitial collagenase) were 3 µM, 2 µM and more than 10 µM, respectively. In the experiment with THP-1, this compound displayed an inhibition at 3 µM of 5%.

As to `CC#CCOc1ccc(SC(C(=O)NO)c2ccc(OC)cc2)cc1` (configuration not stated), the IC50 (in experiment [2]; on Collagenase 3; against Interstitial collagenase) was more than 10 µM throughout. Moreover, the inhibition at 3 µM with THP-1 turned out to be 3%.

`CC#CCOc1ccc([S+]([O-])C(C(=O)NO)c2ccc(OC)cc2)cc1` (single isomer, unassigned): the 50% inhibitory concentration (IC50) in experiment [1] is 0.017 µM; in experiment [2] it was more than 10 µM; against Collagenase 3, more than 10 µM; against Interstitial collagenase, more than 10 µM.

For the compound `CC#CCOc1ccc(S(=O)(=O)C(C(=O)NO)C(C)C)cc1` (configuration not stated), the half-maximal inhibitory concentration (IC50) is 1.26 µM in experiment [2], 0.107 µM at Collagenase 3 and 5.14 µM against Interstitial collagenase.

Consider `CCCCCC[C@@H](C(=O)NO)[S@+]([O-])c1ccc(OC)cc1` (relative stereo), for which the IC50 in experiment [1] was 0.03 µM; in experiment [2] it was 0.186 µM; on Collagenase 3, 0.072 µM; against Interstitial collagenase, 1.15 µM.

With `CC#CCOc1ccc(S(=O)(=O)C(C(=O)NO)C2CCOCC2)cc1` (configuration not stated), the IC50 (in experiment [2]; on Collagenase 3; against Interstitial collagenase) was more than 10 µM throughout.

Regarding `CC#CCOc1ccc(S(=O)(=O)C(C(=O)NO)C2CCNCC2)cc1` (configuration not stated), the IC50 (in experiment [2]; on Collagenase 3; at Interstitial collagenase) was more than 10 µM throughout.

For the compound `CC#CCOc1ccc(S(=O)(=O)C(C(=O)NO)C2CCCCC2)cc1` (configuration not stated), the half-inhibitory concentration (IC50) (in experiment [2]; on Interstitial collagenase) was more than 10 µM each time.

The compound `CC#CCOc1ccc(SC(CCCCCC)C(=O)NO)cc1` (configuration not stated) came in with a half-inhibitory concentration (IC50) on Interstitial collagenase of more than 10 µM. The compound also returned an inhibition at 3 µM in the experiment with THP-1 of 5%.

Take `COc1ccc(S(=O)(=O)C2(C(=O)NO)CCN(Cc3ccc(Br)cc3)CC2)cc1`: the inhibition at 3 µM in the experiment on THP-1 came to 0%.

The compound `CC#CCOc1ccc(S(=O)(=O)C2(C(=O)NO)CCN(Cc3ccccc3)CC2)cc1` displayed an IC50 against Interstitial collagenase of 2.64 µM. This counts as single-digit micromolar.

Turning to `C#CCOc1ccc(S(=O)(=O)C2(C(=O)NO)CCN(Cc3ccc(Br)cc3)CC2)cc1`, the IC50 in experiment [2] is 0.006 µM; against Collagenase 3, 0.003 µM. Moreover, in the experiment on THP-1, the inhibition at 3 µM was determined as 7%.

For `CCCCCC[C@@H](C(=O)NO)[S@@+]([O-])c1ccc(OC)cc1` (relative stereo), the IC50 turned out to be 0.375 µM in experiment [1], 0.148 µM in experiment [2], 0.018 µM on Collagenase 3 and 1.51 µM on Interstitial collagenase.

On to `CC#CCOc1ccc(SC(C(=O)NO)C(C)C)cc1` (configuration not stated), for which the IC50 (in experiment [2]; against Collagenase 3; at Interstitial collagenase) was more than 10 µM throughout. Moreover, the inhibition at 3 µM in the experiment with THP-1 is 13%.

On Interstitial collagenase, `CC#CCOc1ccc(S(=O)(=O)C2(C(=O)NO)CCN(Cc3ccc(Br)cc3)CC2)cc1` yielded an IC50 of 3.37 µM.

Consider `CC#CCOc1ccc([S+]([O-])C(C(=O)NO)c2ccccc2)cc1` (single isomer, unassigned), for which the concentration for half-maximal inhibition (IC50) (in experiment [2]; against Collagenase 3; against Interstitial collagenase) was more than 10 µM in each case. The compound further registered an inhibition at 3 µM in the experiment on THP-1 of 74%.

With `CC#CCOc1ccc(SC(C(=O)NO)c2ccccc2)cc1` (configuration not stated), the IC50 (in experiment [2]; on Collagenase 3; against Interstitial collagenase) was more than 10 µM in each case. This compound returned an inhibition at 3 µM with THP-1 of 14%.

With `CC#CCOc1ccc([S@@+]([O-])[C@H](C(=O)NO)C(C)C)cc1`, the results for the half-inhibitory concentration (IC50) (in experiment [2]; against Interstitial collagenase) were 0.399 µM and 6.48 µM, respectively.
